Earlier results, collected in US8648072B2, “Cannabinoid receptor antagonists/inverse agonists useful for treating metabolic disorders, including obesity and diabetes” (Jenrin Discovery, Inc., priority 2009, dated 2014).

System: patients with type 2 diabetes
Details: after six months of treatment; baseline value of 7.9; placebo group 0.3%

Cc1c(C(=O)NN2CCCCC2)nn(-c2ccc(Cl)cc2Cl)c1-c1ccc(Cl)cc1 [rimonabant]
HbA1c levels lowered: 0.8%
